# Results: patent US8871760B2, “[1,2,4]triazolo[3,4-C][1,4]oxazines as P2X7 modulators” (Roche Palo Alto LLC, priority 2009, dated 2014)
# Target: T1, human P2X7 (UniProt Q99572)
# T1 sequence (Q99572 1-595): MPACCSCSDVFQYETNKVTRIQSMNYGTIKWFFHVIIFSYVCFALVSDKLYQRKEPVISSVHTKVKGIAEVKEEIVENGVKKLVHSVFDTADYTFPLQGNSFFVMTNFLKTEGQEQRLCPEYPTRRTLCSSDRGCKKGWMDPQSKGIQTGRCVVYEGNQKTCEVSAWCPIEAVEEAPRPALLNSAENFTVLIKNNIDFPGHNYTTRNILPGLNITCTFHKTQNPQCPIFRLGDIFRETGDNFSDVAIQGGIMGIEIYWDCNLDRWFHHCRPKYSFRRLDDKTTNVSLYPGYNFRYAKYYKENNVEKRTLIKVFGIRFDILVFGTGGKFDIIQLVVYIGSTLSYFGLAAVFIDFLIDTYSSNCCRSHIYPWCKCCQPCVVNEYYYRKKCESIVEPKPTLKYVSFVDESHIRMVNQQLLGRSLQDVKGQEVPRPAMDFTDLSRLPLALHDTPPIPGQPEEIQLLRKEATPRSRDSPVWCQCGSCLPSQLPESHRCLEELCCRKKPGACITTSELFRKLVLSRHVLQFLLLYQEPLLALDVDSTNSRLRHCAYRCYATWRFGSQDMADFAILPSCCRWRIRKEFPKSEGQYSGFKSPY
# Experiment: Intracellular Calcium Flux (FLIPR) Assay
# Type: cell-based
# Protocol: Intracellular Calcium Flux (FLIPR) Assay
# Compound and Reagent Preparation
# Stock solutions of compounds were prepared from powders as a 10 mM DMSO stock solution. These solutions were stored at RT during the two week period of these experiments to prevent freeze-thaw of the DMSO stocks. The DMSO stocks were added to the appropriate assay buffer at a concentration of 10 μM, and then diluted serially to the final concentrations that were tested. No observable precipitate was formed at any time during this process. The aqueous solutions of compounds as well as ATP (Sigma A7699) and BzATP (Sigma B6396) were prepared fresh for each day of experiment.
# 1321N1 cells stably expressing the full length human P2X7 gene (1321N1-hP2X7) and HEK293 cells stably expressing the full length rat P2X7 gene (HEK293-rP2X7) were obtained from the Roche Cell Culture Facility. 1321N1-hP2X7 cells were grown in Dulbecco's Modified Eagle's Medium (DMEM) high glucose supplemented with 10% FBS and […] G418. HEK293-rP2X7 cells were grown in DMEM/F-12 supplemented with 10% FBS, 1 mM CaCl2, 2 mM MgCl2, 2 mM L-Glutamine and […] G418. Cells were split such that they never became >70% confluent.
# Intracellular Calcium Flux (FLIPR)
# On the day prior to the experiment, 1321N1-hP2X7 or HEK293-rP2X7 cells were released into suspension with calcium-free PBS+Versene and washed by centrifugation with calcium-free PBS to remove the Versene. Cells were resuspended in growth medium at a density of 2.5×10^5 cells/mL and seeded into black walled, clear bottom 96 well plates (50,000 cells/well) approximately 18 hr prior to intracellular calcium flux experiments.
# On the day of the experiment, plates were washed with FLIPR buffer (calcium- and magnesium-free Hank's Balanced Salt Solution (HBSS) supplemented with 10 mM Hepes, 2.5 mM probenecid and 2 mM calcium chloride) using a BIO-TEK 96 channel plate washer and incubated with […] fluo-3 dye at 37° C. for one hr. The dye was then removed by plate washing and the cells were allowed to equilibrate for 20 min at room temperature with antagonist or vehicle (FLIPR buffer). Agonist (100 μM BzATP final concentration for hP2X7; 5 μM BzATP final concentration or rP2X7) was added online with the FLIPR and fluorescence measurements made at 1 sec intervals for 60 sec followed by 3 sec intervals for a further 4 min (5 min total). A final addition of 5 μM ionomycin was made and the maximal BzATP-evoked fluorescence normalized to the maximal ionomycin-evoked fluorescence.
row,Structure (SMILES),pIC50
1,"Cc1ccc(-c2cc(C)n(CCO)n2)cc1Nc1nnc2n1[C@H](c1ccc(F)cc1)COC2 [Compound 30, 2-(3-{3-[(R)-5-(4-Fluoro-phenyl)-5,6-dihydro-8H-[1,2,4]triazolo[3,4-c][1,4]oxazin-3-ylamino]-4-methyl-phenyl}-5-methyl-pyrazol-1-yl)-ethanol]",7.735
2,"Cc1ccc(-c2cc(C)n(C[C@@H](C)O)n2)cc1Nc1nnc2n1[C@H](c1ccc(F)cc1)COC2 [Compound 31, (R)-1-(3-{3-[(R)-5-(4-Fluoro-phenyl)-5,6-dihydro-8H-[1,2,4]triazolo[3,4-c][1,4]oxazin-3-ylamino]-4-methyl-phenyl}-5-methyl-pyrazol-1-yl)-propan-2-ol]",7.45
3,"Cc1ccc(-c2cc(C)n(C[C@@H](O)CO)n2)cc1Nc1nnc2n1[C@H](c1ccc(F)cc1)COC2 [Compound 32, (R)-3-(3-{3-[(R)-5-(4-Fluoro-phenyl)-5,6-dihydro-8H-[1,2,4]triazolo[3,4-c][1,4]oxazin-3-ylamino]-4-methyl-phenyl}-5-methyl-pyrazol-1-yl)-propane-1,2-diol]",7.5475
4,"COC[C@H](O)Cn1nc(-c2ccc(C)c(Nc3nnc4n3[C@H](c3ccc(F)cc3)COC4)c2)cc1C [Compound 33, (R)-1-(3-{3-[(R)-5-(4-Fluoro-phenyl)-5,6-dihydro-8H-[1,2,4]triazolo[3,4-c][1,4]oxazin-3-ylamino]-4-methyl-phenyl}-5-methyl-pyrazol-1-yl)-3-methoxy-propan-2-ol]",7.56
5,"Cc1ccc(-c2cc(C)n(C[C@H](O)CO)n2)cc1Nc1nnc2n1[C@H](c1ccc(F)cc1)COC2 [Compound 35, (S)-3-(3-{3-[(R)-5-(4-Fluoro-phenyl)-5,6-dihydro-8H-[1,2,4]triazolo[3,4-c][1,4]oxazin-3-ylamino]-4-methyl-phenyl}-5-methyl-pyrazol-1-yl)-propane-1,2-diol]",7.755
6,"Cc1ccc2[nH]c(=O)ccc2c1Nc1nnc2n1[C@H](c1ccc(F)cc1)COC2 [Compound 38, 5-[(R)-5-(4-Fluoro-phenyl)-5,6-dihydro-8H-[1,2,4]triazolo[3,4-c][1,4]oxazin-3-ylamino]-6-methyl-1H-quinolin-2-one]",7.46
7,"Cc1ccc(-c2ccn[nH]c2=O)cc1Nc1nnc2n1[C@H](c1ccc(F)cc1)COC2 [Compound 43, 4-{3-[(R)-5-(4-Fluoro-phenyl)-5,6-dihydro-8H-[1,2,4]triazolo[3,4-c][1,4]oxazin-3-ylamino]-4-methyl-phenyl}-2H-pyridazin-3-one]",8.28
8,"Cc1cc(Cl)c(OCCO)cc1Nc1nnc2n1[C@H](c1cccc(F)c1)COC2 [Compound 44, 2-{2-Chloro-5-[(R)-5-(3-fluoro-phenyl)-5,6-dihydro-8H-[1,2,4]triazolo[3,4-c][1,4]oxazin-3-ylamino]-4-methyl-phenoxy}-ethanol]",7.6
9,"O=c1[nH]ncc2c(Nc3nnc4n3[C@H](c3ccc(F)cc3)COC4)c(Br)ccc12 [Compound 48, 6-Bromo-5-[(R)-5-(4-fluoro-phenyl)-5,6-dihydro-8H-[1,2,4]triazolo[3,4-c][1,4]oxazin-3-ylamino]-2H-phthalazin-1-one]",7.57
10,"O=c1[nH]nccc1-c1ccc(Br)c(Nc2nnc3n2[C@H](c2ccc(F)cc2)COC3)c1 [Compound 49, 4-{4-Bromo-3-[(R)-5-(4-fluoro-phenyl)-5,6-dihydro-8H-[1,2,4]triazolo[3,4-c][1,4]oxazin-3-ylamino]-phenyl}-2H-pyridazin-3-one]",8.2
11,"Cc1ccc(-c2ccnn(C)c2=O)cc1Nc1nnc2n1[C@H](c1ccc(F)cc1)CSC2 [Compound 51, 4-{3-[(R)-5-(4-Fluoro-phenyl)-5,6-dihydro-8H-[1,2,4]triazolo[3,4-c][1,4]thiazin-3-ylamino]-4-methyl-phenyl}-2-methyl-2H-pyridazin-3-one]",8.16

# Further lines, results first:
row,pIC50,Structure (SMILES)
1,7.4,"Cc1ccc(-c2cc(C)n(C[C@H](C)O)n2)cc1Nc1nnc2n1[C@H](c1ccc(F)cc1)COC2 [Compound 34, (S)-1-(3-{3-[(R)-5-(4-Fluoro-phenyl)-5,6-dihydro-8H-[1,2,4]triazolo[3,4-c][1,4]oxazin-3-ylamino]-4-methyl-phenyl}-5-methyl-pyrazol-1-yl)-propan-2-ol]"
2,7.87,"Cc1ccc2ncccc2c1Nc1nnc2n1[C@H](c1ccc(F)cc1)COC2 [Compound 36, [(R)-5-(4-Fluoro-phenyl)-5,6-dihydro-8H-[1,2,4]triazolo[3,4-c][1,4]oxazin-3-yl]-(6-methyl-quinolin-5-yl)-amine]"
3,7.865,"Cc1ccc(-c2ccnn(C)c2=O)cc1Nc1nnc2n1[C@H](c1ccc(F)cc1)COC2 [Compound 37, 4-{3-[(R)-5-(4-Fluoro-phenyl)-5,6-dihydro-8H-[1,2,4]triazolo[3,4-c][1,4]oxazin-3-ylamino]-4-methyl-phenyl}-2-methyl-2H-pyridazin-3-one]"
4,7.54,"Cc1cc(-c2ccc(Cl)c(Nc3nnc4n3[C@H](c3ccc(F)cc3)COC4)c2)nn1CCO [Compound 40, 2-(3-{4-Chloro-3-[(R)-5-(4-fluoro-phenyl)-5,6-dihydro-8H-[1,2,4]triazolo[3,4-c][1,4]oxazin-3-ylamino]-phenyl}-5-methyl-pyrazol-1-yl)-ethanol]"
5,7.665,"Cc1ccc(-c2ccc(=O)[nH]n2)cc1Nc1nnc2n1[C@H](c1ccc(F)cc1)COC2 [Compound 41, 6-{3-[(R)-5-(4-Fluoro-phenyl)-5,6-dihydro-8H-[1,2,4]triazolo[3,4-c][1,4]oxazin-3-ylamino]-4-methyl-phenyl}-2H-pyridazin-3-one]"
6,6.135,"O=c1[nH]ncc2c(Nc3nnc4n3[C@H](c3ccc(F)cc3)COC4)cccc12 [Compound 42, 5-[(R)-5-(4-Fluoro-phenyl)-5,6-dihydro-8H-[1,2,4]triazolo[3,4-c][1,4]oxazin-3-ylamino]-2H-phthalazin-1-one]"
7,7.705,"Cc1cc(Cl)c(OCCO)cc1Nc1nnc2n1[C@H](c1ccc(F)cc1)C[S@@+]([O-])C2 [Compound 47, 2-{2-Chloro-5-[(5R,7R)-5-(4-fluoro-phenyl)-7-oxo-5,6,7,8-tetrahydro-7lambda*4*- [1,2,4]triazolo[3,4-c][1,4]thiazin-3-ylamino]-4-methyl-phenoxy}-ethanol]"
8,7.17,"Cc1cc(Cl)c(-n2ncccc2=O)cc1Nc1nnc2n1[C@H](c1ccc(F)cc1)COC2 [Compound 50, 2-{2-Chloro-5-[(R)-5-(4-fluoro-phenyl)-5,6-dihydro-8H-[1,2,4]triazolo[3,4-c][1,4]oxazin-3-ylamino]-4-methyl-phenyl}-2H-pyridazin-3-one]"
9,8.09,"Cc1ccc(-c2ccnn(CCO)c2=O)cc1Nc1nnc2n1[C@H](c1ccc(F)cc1)COC2 [Compound 52, 4-{3-[(R)-5-(4-Fluoro-phenyl)-5,6-dihydro-8H-[1,2,4]triazolo[3,4-c][1,4]oxazin-3-ylamino]-4-methyl-phenyl}-2-(2-hydroxy-ethyl)-2H-pyridazin-3-one]"
10,7.325,"O=C1NCCCN1c1ccc(Br)c(Nc2nnc3n2[C@H](c2ccc(F)cc2)COC3)c1 [Compound 54, 1-{4-Bromo-3-[(R)-5-(4-fluoro-phenyl)-5,6-dihydro-8H-[1,2,4]triazolo-[3,4-c][1,4]oxazin-3-ylamino]-phenyl}-tetrahydro-pyrimidin-2-one]"
